Reference: ChEMBL document CHEMBL2401646 (Bioorg Med Chem Lett, 2013)
Converted amounts (≈) assume the structure as drawn.

Columns and labels:
[1] = target: Hepatocyte growth factor receptor (Homo sapiens, UniProt P08581, Y1230H); test: Inhibition of cMET Y1230H mutant (unknown origin) autophosphorylation
Mus musculus [2] = test: Inhibition of MET autophosphorylation at Y1234/1235 in human MKN45 cells xenografted in mouse at 100 mg/kg, po after 24 hrs; type: functional; settings: MKN-45, 24 h
SNU-5 [3] = test: Antitumor activity against human SNU5 cells xenografted in nu/nu CD1 mouse model assessed as tumor growth inhibition at 200 mg/kg, po qd for 20 days; settings: SNU-5, po, 480 h, read-out: TGI
[4] = Antitumor activity against human U87MG cells xenografted in nu/nu CD1 mouse model assessed as tumor growth inhibition at 100 mg/kg, po bid for 14 days; type: functional, U-87MG ATCC; settings: U-87 MG, 336 h, read-out: TGI
[5] = Cmax in Sprague-Dawley rat at 20 mg/kg, po; type: ADME, organism-based; parameters: dose 20 mg/kg, route oral; settings: in vivo
[6] = Antitumor activity against human U87MG cells xenografted in nu/nu CD1 mouse model assessed as tumor growth inhibition at 50 mg/kg, po bid for 14 days; type: functional, U-87MG ATCC; settings: U-87 MG, 336 h, read-out: TGI
[7] = Antitumor activity against human U87MG cells xenografted in nu/nu CD1 mouse model assessed as tumor growth inhibition at 200 mg/kg, po qd for 14 days; type: functional, U-87MG ATCC; settings: U-87 MG, 336 h, read-out: TGI
[8] = Clearance in Sprague-Dawley rat at 2 mg/kg, iv; type: ADME, organism-based; parameters: dose 2 mg/kg, route intravenous; settings: in vivo
Aurora kinase B [9] = target: T1, Aurora kinase B (Homo sapiens, UniProt Q96GD4); test: Inhibition of aurora-B in human HT-29 cells assessed as phosphorylation of histone H3 at Ser10; type: cell-based
Mus musculus [10] = test: Toxicity in human U87MG cells xenografted nu/nu CD1 mouse model assessed as body weigh loss at 50 mg/kg, po qd for 14 days; type: organism-based, U-87MG ATCC; parameters: dose 50 mg/kg, route oral; settings: in vivo, 336 h
[11] = Protein binding in mouse plasma by equilibrium dialysis; type: ADME, cell-free; settings: read-out: PPB (converted)
Mus musculus [12] = test: Toxicity in human SNU5 cells xenografted nu/nu CD1 mouse model assessed as body weigh loss at 100 mg/kg, po qd for 20 days; settings: in vivo, 480 h
[13] = Solubility of the compound at around physiological pH; type: physicochemical
[14] = target: Macrophage-stimulating protein receptor (Homo sapiens, UniProt Q04912); test: Inhibition of short-form RON (unknown origin) expressed in human HeLa cells assessed as phosphorylated RON levels after 4 hrs; type: cell-based
[15] = target: T2, ALK tyrosine kinase receptor (Homo sapiens, UniProt Q9UM73); test: Inhibition of ALK autophosphorylation in human Karpas-299 cells; type: cell-based
[16] = Metabolic stability in mouse liver microsomes assessed as extraction ratio up to 40 mins by LC-MS/MS analysis; type: ADME, Microsome; settings: read-out: ERH
Mus musculus [17] = test: Toxicity in human U87MG cells xenografted nu/nu CD1 mouse model assessed as body weigh loss at 50 mg/kg, po bid for 14 days; type: organism-based, U-87MG ATCC; parameters: dose 50 mg/kg, route oral; settings: in vivo, 336 h
[18] = Antitumor activity against human U87MG cells xenografted in nu/nu CD1 mouse model assessed as tumor growth inhibition at 50 mg/kg, po qd for 14 days; type: functional, U-87MG ATCC; settings: U-87 MG, 336 h, read-out: TGI
[19] = target: T3, Hepatocyte growth factor receptor (Homo sapiens, UniProt P08581); test: Inhibition of cMET (unknown origin) using biotinylated poly(Glu,Tyr) as substrate after 60 mins
[20] = Plasma concentration in human MKN45 cells xenografted in mouse at 100 mg/kg, po after 16 hrs; type: ADME, organism-based, MKN-45; parameters: dose 100 mg/kg, route oral
Salmonella typhimurium [21] = test: Mutagenic activity in Salmonella typhimurium TA98 by Ames test in presence of liver S9 fraction; type: toxicity, organism-based; settings: salmonella enterica subsp. enterica serovar typhimurium
[22] = Volume of distribution at steady state in Sprague-Dawley rat at 2 mg/kg, iv; type: ADME, organism-based; parameters: dose 2 mg/kg, route intravenous; settings: in vivo, read-out: Vdss
[23] = Antitumor activity against human U87MG cells xenografted in nu/nu CD1 mouse model assessed as maximum tumor regression at 200 mg/kg, po qd for 14 days; type: functional, U-87MG ATCC
[24] = target: T3, Hepatocyte growth factor receptor; test: Inhibition of cMET in human MKN45 cells assessed as phosphorylated MET levels after 4 hrs in presence of mouse plasma; type: cell-based, MKN-45
Salmonella typhimurium [25] = test: Mutagenic activity in Salmonella typhimurium TA100 by Ames test in absence of liver S9 fraction; type: toxicity, organism-based; settings: salmonella enterica subsp. enterica serovar typhimurium
Aurora kinase B [26] = target: T1, Aurora kinase B; test: Inhibition of aurora-B (unknown origin) autophosphorylation
MKN-45 = test: Antiproliferative activity against human MKN45 cells after 3 days by CellTiter-Glo assay; type: functional, cell-based; settings: MKN-45, 72 h
Mus musculus [27] = test: Toxicity in human SNU5 cells xenografted nu/nu CD1 mouse model assessed as body weigh loss at 200 mg/kg, po qd for 20 days; settings: in vivo, 480 h
Mus musculus [28] = test: Toxicity in human SNU5 cells xenografted nu/nu CD1 mouse model assessed as body weigh loss at 50 mg/kg, po qd for 20 days; settings: in vivo, 480 h
[29] = Plasma concentration in human MKN45 cells xenografted in mouse at 100 mg/kg, po up to 8 hrs; type: ADME, organism-based, MKN-45; parameters: dose 100 mg/kg, route oral
Salmonella typhimurium [30] = test: Mutagenic activity in Salmonella typhimurium TA98 by Ames test in absence of liver S9 fraction; type: toxicity, organism-based; settings: salmonella enterica subsp. enterica serovar typhimurium
[31] = Oral bioavailability in Sprague-Dawley rat at 20 mg/kg; type: ADME, organism-based; settings: in vivo
[32] = Antitumor activity against human U87MG cells xenografted in nu/nu CD1 mouse model assessed as maximum tumor regression at 100 mg/kg, po bid for 14 days; type: functional, U-87MG ATCC
Aurora kinase B [33] = target: T1, Aurora kinase B; test: Inhibition of aurora-B in human HT-29 cells assessed as phosphorylation of histone H3 at Ser10 in presence of mouse plasma; type: cell-based
[34] = Antitumor activity against human U87MG cells xenografted in nu/nu CD1 mouse model assessed as tumor growth inhibition at 100 mg/kg, po qd for 14 days; type: functional, U-87MG ATCC; settings: U-87 MG, 336 h, read-out: TGI
[35] = target: T2, ALK tyrosine kinase receptor; test: Inhibition of ALK (unknown origin) autophosphorylation
[36] = Clearance in CD1 mouse at 2 mg/kg, iv; type: ADME, organism-based; parameters: dose 2 mg/kg, route intravenous; settings: in vivo
SNU-5 [37] = test: Antitumor activity against human SNU5 cells xenografted in nu/nu CD1 mouse model assessed as tumor growth inhibition at 100 mg/kg, po qd for 20 days; settings: SNU-5, po, 480 h, read-out: TGI
SNU-5 [38] = test: Antitumor activity against human SNU5 cells xenografted in nu/nu CD1 mouse model assessed as maximum tumor regression at 200 mg/kg, po qd for 20 days
[39] = Half life in CD1 mouse at 2 mg/kg, iv; type: ADME, organism-based; parameters: dose 2 mg/kg, route intravenous; settings: in vivo
SNU-5 [40] = test: Antitumor activity against human SNU5 cells xenografted in nu/nu CD1 mouse model assessed as tumor growth inhibition at 50 mg/kg, po qd for 20 days; settings: SNU-5, po, 480 h, read-out: TGI
[41] = Metabolic stability in human liver microsomes assessed as extraction ratio up to 40 mins by LC-MS/MS analysis; type: ADME, Microsome; settings: read-out: ERH
[42] = Antitumor activity against human U87MG cells xenografted in nu/nu CD1 mouse model assessed as maximum tumor regression at 50 mg/kg, po bid for 14 days; type: functional, U-87MG ATCC

C[C@@H](Oc1c(N)ncc2c(C3=CCN(C(N)=O)CC3)coc12)c1c(Cl)ccc(F)c1Cl
IC50 [1]: 110 nM | inhibition in vivo at 100 mg/kg (Mus musculus [2]): 45% | inhibition in vivo at 200 mg/kg (SNU-5 [3]): 100% | inhibition in vivo at 100 mg/kg [4]: 97% | Cmax [5]: 2500 nM | inhibition in vivo at 50 mg/kg [6]: 79% | inhibition in vivo at 200 mg/kg [7]: 94% | clearance [8]: 39 mL/min/kg | IC50 (Aurora kinase B [9]): 1000 nM | Activity (Mus musculus [10]): 0% | fraction unbound [11]: 0.018 | Activity (Mus musculus [12]): 2% | solubility [13]: 1 µM (≈ 0.465 µg/mL) | IC50 [14]: 200 nM | IC50 [15]: 500 nM | hepatic extraction ratio at 40 min [16]: 0.7 | Activity (Mus musculus [17]): 5% | inhibition in vivo at 50 mg/kg [18]: 58% | IC50 [19]: 26 nM | concentration at 16 h [20]: 520 nM | Activity (Salmonella typhimurium [21]): Non-toxic | Vd [22]: 6.8 L/kg | Activity [23]: 8% | IC50 [24]: 600 nM | Activity (Salmonella typhimurium [25]): Non-toxic | IC50 (Aurora kinase B [26]): 11 nM | IC50 (MKN-45): 130 nM | Activity (Mus musculus [27]): 4% | Activity (Mus musculus [28]): 4% | concentration at 8 h [29]: > 3000 nM | Activity (Salmonella typhimurium [30]): Non-toxic | bioavailability [31]: 72% | Activity [32]: 22% | IC50 (Aurora kinase B [33]): > 10000 nM | inhibition in vivo at 100 mg/kg [34]: 79% | IC50 [35]: 40 nM | clearance [36]: 51 mL/min/kg | inhibition in vivo at 100 mg/kg (SNU-5 [37]): 100% | Activity (SNU-5 [38]): 80% | half-life [39]: 2.9 h | inhibition in vivo at 50 mg/kg (SNU-5 [40]): 100% | hepatic extraction ratio at 40 min [41]: 0.7 | Activity [42]: 0%
